Here are results for one compound from US4610686A, “Controlled delivery of haloperidol by an osmotic delivery system” (ALZA Corporation, priority 1983, dated 1986).

The conditions of data set [1]: haloperidol alone.
Data set [2] is described as follows: physchem.
For data set [3] the following is noted: haloperidol, background statement; cited from earlier work.

Values after ≈ are worked out from the molar mass of the structure shown.

For the compound `O=C(CCCN1CCC(O)(c2ccc(Cl)cc2)CC1)c1ccc(F)cc1` [haloperidol, 4-[4-(-chlorophenyl)-4-hydroxy-1-piperidnyl]-1-(4-fluorophenyl)-1-butanone], the “osmotic pressure (in words)” value in data set [1] is listed as “near zero osmotic pressure”. In addition, the solubility in data set [2] (aqueous citric acid) was 165 mg/mL (≈ 439 mM); in data set [2] (aqueous maleic acid), above 200 mg/mL; in data set [2] (aqueous malic acid), above 250 mg/mL; in data set [2] (water), below 0.1 mg/mL. Further, the “solubility in water (in words, background)” value in data set [3] is “practically insoluble in water”.

As usually defined, the solubility is the dissolved amount per volume that the medium holds. Read a high solubility as much dissolved substance.
